{
  "source": "patent US20200397673A1",
  "about": "“AN ANTIMICROBIAL COMPOSITION” (Conopco, Inc., d/b/a UNILEVER, priority 2017, published 2020)",
  "test_system": "M. furfur ATCC 14521",
  "assay": "Antifungal activity (log reduction) on M. furfur",
  "format": "cell-based",
  "conditions": "contact time 24 hr, 10 mg sample in 1000 μL inoculum, 10^5 cells/ml, 32° C.",
  "description": "The above samples were subjected to their anti fungal efficacy on M. furfur as described hereinafter.\nM. furfur ATCC 14521 strain was revived from glycerol stock on Modified Dixon agar. Plate was at 30° C. for 72 hrs. Approximately 72 hrs prior to testing, the plate culture was inoculated onto the surface of another sterile Modified Dixon agar plate and incubated at 30° C. for approximately 72 hrs. From second subculture, the optical density of culture is adjusted at 620 nm to give cell strength of 10^7 cfu/ml. The culture was further diluted for 100 times to achieve 10^5 cfu/ml in Pityrosporum broth.\n1000 μL of M. furfur inocula were added to the above tubes and a blank sterile 1.5 ml Eppendorf tube (no particles as control), respectively so that the load in each tube is 10^5 cells/ml.\nAll the samples were kept shaken @120 RPM in a shaker incubator at 32° C. After 24 hours incubation, 10 μL of the samples were withdrawn from the respective 1.5 ml Eppendorf tubes and diluted with 990 μL of Pityrosporum broth. This represents 10^−2 dilution. Serial dilution was performed from the above 24 hours inocula and plated 100 μL of dilution onto modified Dixon plate. Plate dilution 10^−2, 10^−3, 10^−4 and 10^−5. All the plates were kept for incubation at 32° C. for 24-72 hrs. Plate count for all the plates were done.",
  "data": [
    {"substance": "zinc pyrithione [Example B]", "values": [
      {"measurement": "Log reduction", "value": 1.58}
    ]}
  ]
}
